Measured values reported in the supplement of paper PMC10307832.

Columns and labels:
Assay in all cases: relative viability (nuclei count vs DMSO), 5 days (fraction); higher = more cells survive
[1] = compound: COc1cc(-c2nn([C@H]3CC[C@H](N4CCN(C(C)=O)CC4)CC3)c3ncnc(N)c23)ccc1NC(=O)c1cc2ccccc2n1C + CC1(C)CCC(c2ccc(Cl)cc2)=C(CN2CCN(c3ccc(C(=O)NS(=O)(=O)c4ccc(N[C@H](CCN5CCOCC5)CSc5ccccc5)c(S(=O)(=O)C(F)(F)F)c4)cc3)CC2)C1 [Navitoclax] (partner 0.5 µM)
In short: (§1)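 Lung cancer cell lines were seeded in 1536-well plates and dosed by pin tool the next day, with either a single drug or a fixed anchor-drug dose combined with five library-drug doses (not always all listed) spaced in √10 steps. Five days later, one step fixed the cells and stained their nuclei (final 0.05% Triton X-100, 1% formaldehyde, 1 ug/ml Hoechst), and nuclei were counted on 4× images. Relative viability is the nuclei count in treated wells divided by the count in vehicle wells, and each value is the median of duplicate plates.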

[2] = compound: CO[C@@H]1[C@H](N(C)C(=O)c2ccccc2)C[C@H]2O[C@]1(C)n1c3ccccc3c3c4c(c5c6ccccc6n2c5c31)C(=O)NC4 [Midostaurin] + CC(=O)Nc1cccc(-n2c(=O)n(C3CC3)c(=O)c3c(Nc4ccc(I)cc4F)n(C)c(=O)c(C)c32)c1 [Trametinib] (partner 0.02 µM)
In short: as §1

[3] = compound: CO[C@@H]1[C@H](N(C)C(=O)c2ccccc2)C[C@H]2O[C@]1(C)n1c3ccccc3c3c4c(c5c6ccccc6n2c5c31)C(=O)NC4 [Midostaurin] + CS(=O)(=O)N1CCN(Cc2cc3nc(-c4cccc5[nH]ncc45)nc(N4CCOCC4)c3s2)CC1 [Pictilisib] (partner 1 µM)
In short: as §1

[4] = compound: CO[C@@H]1[C@H](N(C)C(=O)c2ccccc2)C[C@H]2O[C@]1(C)n1c3ccccc3c3c4c(c5c6ccccc6n2c5c31)C(=O)NC4 [Midostaurin] + Nc1ncn([C@H]2C[C@H](O)[C@@H](CO)O2)c(=O)n1 [Decitabine] (partner 2 µM)
In short: as §1

[5] = compound: COc1cc(-c2nn([C@H]3CC[C@H](N4CCN(C(C)=O)CC4)CC3)c3ncnc(N)c23)ccc1NC(=O)c1cc2ccccc2n1C + Cc1nc(Nc2ncc(C(=O)Nc3c(C)cccc3Cl)s2)cc(N2CCN(CCO)CC2)n1 [Dasatinib] (partner 0.075 µM)
In short: as §1

Cell Line	relative viability ([1]; first compound 0.0128 µM)	relative viability ([1]; first compound 0.04048 µM)	relative viability ([1]; first compound 0.128 µM)	relative viability ([1]; first compound 1.28 µM)	relative viability ([2]; first compound 0.01 µM)	relative viability ([2]; first compound 0.03162 µM)	relative viability ([2]; first compound 0.1 µM)	relative viability ([2]; first compound 0.3162 µM)	relative viability ([3]; first compound 0.01 µM)	relative viability ([3]; first compound 0.03162 µM)	relative viability ([3]; first compound 0.1 µM)	relative viability ([3]; first compound 0.3162 µM)	relative viability ([4]; first compound 0.01 µM)	relative viability ([4]; first compound 0.03162 µM)	relative viability ([4]; first compound 0.1 µM)	relative viability ([4]; first compound 0.3162 µM)	relative viability ([5]; first compound 0.0128 µM)	relative viability ([5]; first compound 0.04048 µM)	relative viability ([5]; first compound 0.128 µM)	relative viability ([5]; first compound 1.28 µM)
NCI-H2023	0.999	1.06	1.02	0.835	0.499	0.618	0.375	0.276	0.235	0.249	0.208	0.186	0.226	0.273	0.223	0.201	0.559	0.668	0.524	0.663
NCI-H23	0.825	0.549	0.716	0.77	0.369	0.441	0.285	0.299	0.448	0.402	0.439	0.326	0.302	0.368	0.308	0.249	0.736	0.469	0.778	0.741
NCI-H1944	1.04	0.999	0.982	0.764	0.419	0.398	0.39	0.413	0.388	0.294	0.372	0.327	0.463	0.439	0.375	0.394	0.221	0.203	0.224	0.206
NCI-H1793	0.5	0.571	0.332	0.258	0.403	0.402	0.438	0.428	0.378	0.097	0.217	0.49	0.484	0.551	0.493	0.359	0.392	0.35	0.401	0.346
NCI-H520	1.16	1.06	0.995	0.861	0.768	0.717	0.714	0.583	0.257	0.239	0.3	0.362	0.498	0.501	0.514	0.427	0.211	0.273	0.236	0.307
NCI-H460	1.2	1.41	1.03	0.862	0.176	0.174	0.116	0.12	0.388	0.296	0.346	0.417	0.491	0.526	0.53	0.638	0.526	0.386	0.475	0.507
EKVX	1.05	1.03	0.957	0.384	0.321	0.348	0.292	0.351	0.487	0.367	0.473	0.483	0.312	0.312	0.353	0.349	0.859	0.611	0.505	0.385
EPLC-272H	1.13	1.05	0.983	0.871	0.352	0.304	0.28	0.301	0.338	0.305	0.295	0.298	0.35	0.332	0.356	0.345	0.407	–	0.391	0.347
NCI-H1395	0.963	1.26	1.16	0.881	0.978	0.991	1.15	1.08	0.592	0.588	0.588	0.615	0.681	0.81	0.712	0.702	0.414	0.464	0.465	0.449
NCI-H2126	0.858	0.863	0.79	0.641	0.509	0.562	0.553	0.597	0.541	0.441	0.499	0.523	0.549	0.644	0.612	0.613	0.635	0.609	0.626	0.506
LXF-289	1.01	0.886	0.967	0.959	0.687	0.653	0.671	0.685	0.812	0.766	0.764	0.598	0.394	0.339	0.342	0.401	0.291	0.314	0.237	0.227
NCI-H2009	1.16	1.16	1.2	1.14	0.263	0.262	0.292	0.319	0.891	0.833	0.752	0.555	0.426	0.353	0.351	0.361	0.298	0.267	0.31	0.382
NCI-H2405	0.744	0.639	0.729	0.265	0.615	0.562	0.61	0.607	0.464	0.516	–	0.379	0.721	0.8	0.774	0.778	0.252	0.216	0.192	0.179
NCI-H1755	1.09	1.01	0.927	0.803	0.75	0.811	0.798	0.72	0.397	0.345	0.407	0.332	0.778	0.684	0.715	0.739	0.452	0.386	0.43	0.433
HCC-78	0.947	0.901	0.87	0.621	0.757	0.612	0.739	0.463	0.216	0.216	0.229	0.19	0.651	0.676	0.613	0.72	0.375	0.401	0.234	0.24
